This note sets out measurements from PMC9458935, “Modulation of type 1 cannabinoid receptor activity by cannabinoid by-products from Cannabis sativa and non-cannabis phytomolecules” (Frontiers in Pharmacology, 2022).

Structures are written as SMILES. Where two headings read alike, the source gives them in different places.

The target in test [1] is T1, hCB1R (Homo sapiens, UniProt P21554). The experiment in a line: cell-based. The class given is cell-based.
The subject of test [2] is male C57BL/6 mice. The experiment in a line: Anti-nociception, warm water tail-flick test. It is filed as in vivo, mouse. The conditions noted are these: 20 min post-injection; for anti-nociceptive effect, tail-flick: 10 mg/kg i.p., male mice; for effect on ∆9-THC-dependent anti-nociception, tail-flick: 10 mg/kg phytomolecule + 10 mg/kg ∆9-THC i.p. On the procedure:
(§1) Male C57BL/6 mice between 8 and 12 weeks of age were used for these studies. Animals were group housed at the Laboratory Animal Services Unit (LASU) at the University of Saskatchewan (3 animals/cage) with a standard 12:12 light-dark cycle, ad libitum access to food and water, and environmental enrichment. Compounds were prepared in the vehicle [ethanol and cremophor in saline (1:1:8)] and administered intraperitoneally (i.p.). Catalepsy was assessed in the bar holding assay 5 min after compound administration with animals placed so that their forepaws clasped a 0.7-cm ring clamp 4.5 cm above the surface of the testing space ([Garai et al., 2020]). The length of time the ring was held was recorded up to 60 s (i.e., percent maximum possible effect [MPE] 60 s) with the trial ending if the mouse turned its head or body or made three consecutive escape attempts. Body temperature was measured 15 min after compound administration by using a rectal thermometer. Anti-nociceptive effects were measured in warm water (52 ± 2°C) using the tail-flick test 20 min after compound administration to a maximum of 20 s (i.e., percent maximum possible effect [MPE] 20 s). Compounds were administered at the doses indicated. Experimenters were blinded to treatment for all behavioral assessments and analyses. Animals were purchased, rather than bred, to reduce animal numbers. In all cases, experiments were performed with the approval of the University Animal Care Committee (UACC) at the University of Saskatchewan and in keeping with the guidelines of the Canadian Council on Animal Care (CCAC).
On the technique in general: In hot-plate and tail-flick tests a longer latency is read as antinociception.

Test [3] has as its system male C57BL/6 mice. Put plainly: Catalepsy, bar holding assay. The class given is in vivo, mouse. The following applies: 5 min post-injection; for catalepsy: 10 mg/kg i.p., male mice; for effect on ∆9-THC-dependent catalepsy: 10 mg/kg phytomolecule + 10 mg/kg ∆9-THC i.p. On the procedure:
as §1

Test [4] has as its target T1, hCB1R. Put plainly: biochemical. The class given is binding.
For test [5], the target named is T1, hCB1R. The experiment in a line: cell-based. The class given is cell-based. The source holds these as a separate data set.
For test [6], the system named is male C57BL/6 mice. The experiment in a line: Body temperature, rectal thermometer. The class given is in vivo, mouse. The following applies: 15 min post-injection; for body temperature: 10 mg/kg i.p., male mice; for effect on ∆9-THC-dependent change of body temperature: 10 mg/kg phytomolecule + 10 mg/kg ∆9-THC i.p. As to the method: as §1
Where [7] appears, read: CHO-K1, read-out: cAMP inhibition Emax.
[8] abbreviates: CHO-K1, read-out: βarrestin2 recruitment Emax.
The mark [9] stands for this setting: CHO-K1; read-out: cAMP inhibition Emax.
Where [10] appears, read: co-treatment with 100 nM ∆9-THC.
[11] abbreviates: compound alone; 10 µM forskolin, 90 min; value with 95% CI; read-out: cAMP inhibition EC50.
The mark [12] stands for this setting: CHO-K1; read-out: βarrestin2 recruitment Emax.
[13] abbreviates: compound alone; 90 min; value with 95% CI; read-out: βarrestin2 recruitment EC50.

T1 sequence (P21554 whole entry): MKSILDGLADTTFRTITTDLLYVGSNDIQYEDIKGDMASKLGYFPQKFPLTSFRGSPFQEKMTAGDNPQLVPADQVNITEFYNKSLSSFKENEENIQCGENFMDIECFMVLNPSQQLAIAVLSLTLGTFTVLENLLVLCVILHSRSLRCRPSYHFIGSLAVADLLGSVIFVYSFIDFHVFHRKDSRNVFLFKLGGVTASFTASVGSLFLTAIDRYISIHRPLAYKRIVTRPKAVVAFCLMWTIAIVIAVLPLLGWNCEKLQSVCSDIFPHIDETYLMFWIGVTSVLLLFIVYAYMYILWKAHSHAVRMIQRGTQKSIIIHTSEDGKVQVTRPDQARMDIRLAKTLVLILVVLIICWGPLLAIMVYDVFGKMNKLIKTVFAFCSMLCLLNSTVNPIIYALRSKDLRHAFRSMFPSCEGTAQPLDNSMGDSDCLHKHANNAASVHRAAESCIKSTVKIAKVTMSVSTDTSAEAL

One may read the EC50 as the concentration at which the effect is half-maximal. The Emax is the size of the effect at its maximum, as opposed to the concentration needed. On to `CCCCCc1cc(O)c2c(c1)OC(C)(C)[C@@H]1CCC(CO)=C[C@@H]21` [11-OH-∆^9-THC], for which the EC50 on hCB1R [1] is 0.011 µM; at hCB1R [5], more than 10 µM. At hCB1R [1], the “effect on cAMP inhibition by 100 nM ∆9-THC” value (“effect on cAMP inhibition” for short) is recorded as “inhibited the activity of 100 nM ∆^9-THC in a concentration-dependent manner”. For the same compound, the Emax at hCB1R [1] (setting [7]) came out at 28 ± 3.9%; at hCB1R [5] (setting [8]) it was 47 ± 9.4%. In addition, in the test with male C57BL/6 mice [2], the “anti-nociceptive effect, tail-flick” value is “greater hypothermia and anti-nociceptive responses relative to ∆^9-THC”. Moreover, in the test with male C57BL/6 mice [3], the catalepsy result is recorded as “equal catalepsy”. Moreover, at hCB1R [4], the “[3H]CP55,940 Emin” value was found to be 70 ± 1.7 %. Besides, the “effect on βarrestin2 recruitment by 100 nM ∆9-THC” value at hCB1R [5] was “elevated βarrestin2 recruitment above the activity of 100 nM ∆^9-THC”. Also, in the test with male C57BL/6 mice [6], the body temperature entry is “greater hypothermia”.
As usually defined, the Ki is the dissociation constant of the complex between target and ligand, obtained from inhibition or displacement. A higher Ki goes with a looser hold on the target. Take `CCCCCc1cc(O)c2c(c1)OC(C)(C)c1ccc(C)cc1-2` [CBN, cannabinol]: at hCB1R [1], the EC50 is 0.049 µM, the “effect on cAMP inhibition” value is “neither ∆^8-THC nor CBN produced a significant change in cAMP inhibition” and the “fold less potent than CP55,940 in cAMP inhibition” value is on record as approximately 49 x. The Emax at hCB1R [1] (setting [7]) turned out to be 64 ± 4.6%. Also, in the test on male C57BL/6 mice [2], the “anti-nociceptive effect, tail-flick” value is “did not produce such effect”. In the test on male C57BL/6 mice [3], the catalepsy entry is reported as “did not produce catalepsy”. Further, on hCB1R [4], the affinity, expressed as Ki, was 0.14 µM and the “[3H]CP55,940 Emin” value stood at 71 ± 3.1 %. The same compound gave an EC50 at hCB1R [5] of more than 10 µM. On hCB1R [5] (setting [8]), the maximum response (Emax) is 6.9 ± 0.96%. In the test with male C57BL/6 mice [6], the body temperature result is given as “did not produce catalepsy or reduce body temperature”.
`CCCCCCC(C)(C)c1ccc(C2CC(O)CCC2CCCO)c(O)c1` (centres unmarked) [CP55,940, reference compound]: the Emax on hCB1R [1] (setting [7]) was determined as 100 ± 6.2%; at hCB1R [5] (setting [8]), 100 ± 3.3%. Further, on hCB1R [4], the “[3H]CP55,940 Emin” value is 1.0 ± 4.7%.
With `COc1cc(/C=C/C(=O)CC(=O)/C=C/c2ccc(O)c(OC)c2)ccc1O` [Curcumin, curcumin], on hCB1R [1] (setting [9]), the Emax was determined as 6.2 ± 0.76%. Also, on hCB1R [1] (setting [10]), the “effect on cAMP inhibition” value is “inhibited the activity of 100 nM ∆^9-THC in a concentration-dependent manner”. The EC50 at hCB1R [1] (setting [11]) is more than 10 µM. Moreover, the “effect on ∆9-THC-dependent anti-nociception, tail-flick” value with male C57BL/6 mice [2] is “blocked ∆^9-THC’s effect in the nociception test”. Moreover, the “effect on ∆9-THC-dependent catalepsy” value with male C57BL/6 mice [3] is on record as “capable of blocking ∆^9-THC’s effects on catalepsy”. On hCB1R [4], the Ki is more than 10 µM, the “[3H]CP55,940 Emin” value was 100 ± 2.0 % and the “effect on [3H]CP55,940 displacement by 100 nM ∆9-THC” value (from here on “effect on [3H]CP55,940 displacement”) was “did not significantly alter [^3H]CP55,940 displacement”. For the same compound, the Emax on hCB1R [5] (setting [12]) turned out to be 8.9 ± 2.2%. On hCB1R [5] (setting [13]), the EC50 was more than 10 µM. Further, the “effect on ∆9-THC-dependent change of body temperature” value (from here on “effect on ∆9-THC-dependent change”) in the test on male C57BL/6 mice [6] was “capable of blocking ∆^9-THC’s effects on catalepsy and body temperature”.
For `O=C(O[C@@H]1Cc2c(O)cc(O)cc2O[C@@H]1c1cc(O)c(O)c(O)c1)c1cc(O)c(O)c(O)c1` [Egc G, epigallocatechin gallate], the Emax at hCB1R [1] (setting [9]) turned out to be 5.6 ± 0.52%. For the same compound, the “effect on cAMP inhibition” value at hCB1R [1] (setting [10]) is given as “inhibited the activity of 100 nM ∆^9-THC in a concentration-dependent manner”. At hCB1R [1] (setting [11]), the EC50 was more than 10 µM. For the same compound, at hCB1R [4], the Ki is more than 10 µM, the “[3H]CP55,940 Emin” value was determined as 95 ± 3.4 % and the “effect on [3H]CP55,940 displacement” value was “augmented the displacement of [^3H]CP55,940 from hCB1R by ∆^9-THC”. Also, the maximal effect (Emax) at hCB1R [5] (setting [12]) turned out to be 7.2 ± 0.85%. Besides, the EC50 at hCB1R [5] (setting [13]) is more than 10 µM.
In the case of `CCCCCc1cc(O)cc(O)c1` [Olivetol, olivetol], the maximal effect (Emax) came to 5.6 ± 1.6% on hCB1R [1] (setting [9]) and 8.3 ± 2.1% at hCB1R [5] (setting [12]). Moreover, the “effect on cAMP inhibition” value at hCB1R [1] (setting [10]) is given as “did not change the cAMP inhibitory effects of 100 nM ∆^9-THC”. The EC50 at hCB1R [1] (setting [11]) and on hCB1R [5] (setting [13]) was more than 10 µM throughout. Further, the Ki on hCB1R [4] worked out at 0.017 µM. For the same compound, at hCB1R [4], the “[3H]CP55,940 Emin” value was found to be 57 ± 5.5 %. The “effect on [3H]CP55,940 displacement” value on hCB1R [4] was “did not significantly alter [^3H]CP55,940 displacement”.
As for `CCCCCCCCCCCCCCCC(=O)NCCO` [PEA, palmitoylethanolamide], on hCB1R [1], the “concentration at which CB1R- and ∆9-THC-dependent inhibition of cAMP was augmented” value was “approximately 1 μM”; the “effect on cAMP inhibition” value is listed as “augmented the activity of 100 nM ∆^9-THC in a concentration-dependent manner”; the “type of agonism in cAMP inhibition” value was “weak partial agonist inhibition of cAMP accumulation”. Besides, the Emax at hCB1R [1] (setting [7]) came to 26 ± 1.8%. For the same compound, the “effect on ∆9-THC-dependent anti-nociception, tail-flick” value in the test on male C57BL/6 mice [2] is listed as “did not block the effect”. Also, in the test on male C57BL/6 mice [3], the “effect on ∆9-THC-dependent catalepsy” value is listed as “capable of blocking ∆^9-THC’s effects on catalepsy”. In addition, at hCB1R [4], the Ki was more than 10 µM, the “[3H]CP55,940 Emin” value was determined as 46 ± 5.3 %, the “concentration at which [3H]CP55,940 binding was reduced” value is “exceeding 1 μM” and the “effect on [3H]CP55,940 displacement” value is “did not significantly alter [^3H]CP55,940 displacement”. On hCB1R [5], the “concentration at which CB1R- and ∆9-THC-dependent βarrestin2 recruitment was augmented” value is reported as “approximately 1 μM”; the “effect on βarrestin2 recruitment by 100 nM ∆9-THC” value is “slightly increased βarrestin2 recruitment”. Moreover, the maximal response (Emax) at hCB1R [5] (setting [8]) is 5.6 ± 3.3%. Moreover, in the test on male C57BL/6 mice [6], the “effect on ∆9-THC-dependent change” value is “capable of blocking ∆^9-THC’s effects on catalepsy and body temperature”.
`O=C(/C=C/C=C/c1ccc2c(c1)OCO2)N1CCCCC1` [Piperine, piperine] had an EC50 at hCB1R [1] of more than 10 µM. In addition, the Emax on hCB1R [1] (setting [9]) was 5.5 ± 0.63%. In addition, the “effect on cAMP inhibition” value at hCB1R [1] (setting [10]) is “did not change the cAMP inhibitory effects of 100 nM ∆^9-THC”. Besides, on hCB1R [4], the inhibition constant (Ki) was more than 10 µM, the “[3H]CP55,940 Emin” value amounted to 37 ± 2.8 % and the “effect on [3H]CP55,940 displacement” value is “did not significantly alter [^3H]CP55,940 displacement”. On hCB1R [5], this compound showed an EC50 of more than 10 µM. In addition, the maximum response (Emax) at hCB1R [5] (setting [12]) was 7.9 ± 0.97%.
Regarding `O=c1c(O)c(-c2ccc(O)c(O)c2)oc2cc(O)cc(O)c12` [Quercetin, quercetin], in the test with male C57BL/6 mice [2], the “effect on ∆9-THC-dependent anti-nociception, tail-flick” value is “blocked ∆^9-THC’s effect in the nociception test”. Besides, the “effect on ∆9-THC-dependent catalepsy” value in the test on male C57BL/6 mice [3] is given as “capable of blocking ∆^9-THC’s effects on catalepsy”. Besides, in the test with male C57BL/6 mice [6], the “effect on ∆9-THC-dependent change” value was “capable of blocking ∆^9-THC’s effects on catalepsy and body temperature”.
Consider `CCCCCc1cc(O)c2c(c1)OC(C)(C)C1=C2CC(C)CC1` (centres unmarked) [∆^6a,10a-THC], for which, in the test on male C57BL/6 mice [2], the “anti-nociceptive effect, tail-flick” value is listed as “did not produce such effect”. Besides, the catalepsy result in the test on male C57BL/6 mice [3] was “did not produce catalepsy”. For the same compound, in the test on male C57BL/6 mice [6], the body temperature entry is “did not produce catalepsy or reduce body temperature”.
Take `CCCCCc1cc(O)c2c(c1)OC(C)(C)[C@@H]1CC=C(C)C[C@@H]21` [∆^8-THC]: the “effect on cAMP inhibition” value on hCB1R [1] is listed as “neither ∆^8-THC nor CBN produced a significant change in cAMP inhibition”. Moreover, the results for the Emax at hCB1R [1] (setting [7]) and at hCB1R [5] (setting [8]) were 56 ± 9.6% and 21 ± 1.8%, respectively. For the same compound, the “anti-nociceptive effect, tail-flick” value in the test on male C57BL/6 mice [2] is reported as “produced an anti-nociceptive effect that was not different from ∆^9-THC”. Moreover, in the test with male C57BL/6 mice [3], the catalepsy entry is on record as “did not produce catalepsy”. Also, on hCB1R [4], the “[3H]CP55,940 Emin” value came to 30 ± 5.0 %. Also, the body temperature entry in the test with male C57BL/6 mice [6] is given as “did not produce catalepsy or reduce body temperature”.
